Source: PubChem BioAssay (NCI)
Where “and” joins values, the source holds several entries; their conditions need not be identical. Equal entries are not always repeated.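 Values below derive from 48-hour exposures of cells grown in 96-well plates, with endpoints linearly interpolated between the two concentrations bracketing the appropriate inhibition level. GI50 marks 50% less growth. TGI is the concentration that stops growth completely.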

Experiments:
Test in all cases: DTP human tumour cell line panel, 48 h
[1] = test system: A498 renal
[2] = test system: NCI-H460 lung
[3] = test system: MOLT-4 leukemia
[4] = test system: SF-295 CNS
[5] = test system: NCI/ADR-RES ovarian
[6] = test system: U251 CNS
[7] = test system: CAKI-1 renal
[8] = test system: K-562 leukemia
[9] = test system: EKVX NSCLC
[10] = test system: NCI-H23 lung

SMILES | GI50 [1] | TGI [1] | GI50 [2] | TGI [2] | GI50 [3] [µM] | TGI [3] | GI50 [4] | TGI [4] | GI50 [5] | TGI [5] | GI50 [6] | TGI [6] | GI50 [7] | TGI [7] | GI50 [8] | TGI [8] | GI50 [9] [µM] | TGI [9] | GI50 [10] | TGI [10]
COc1ccc(/C=C(\C#N)n2nnc3cc(Cl)ccc32)cc1 | 0.201 µM | 3.11 µM | 2.83 µM | > 56.6 µM | 1.09 | > 100 µM | 1.18 µM | 6.43 µM | 0.299 µM | 4.58 µM | 0.63 µM | 9.53 µM | 0.461 µM | > 100 µM | 0.217 µM | > 100 µM | 1.47 | > 78 µM | 1.67 µM | > 33.6 µM
CC(=O)C(C(=N)C#N)C(=O)Nc1ccccc1 (centres undefined) | – | > 100 µM | – | > 100 µM | – | > 100 µM | – | > 100 µM | – | > 100 µM | – | > 100 µM | – | > 100 µM | – | > 100 µM | – | > 100 µM | – | > 100 µM
C[C@@H](Oc1cc(-c2cnn(C3CCNCC3)c2)cnc1N)c1c(Cl)ccc(F)c1Cl | 1.51 µM | 5.34 µM | 0.662 µM | 9.32 µM | 0.701 | 4.39 µM | 0.276 µM | > 10 µM | 7.38 µM | > 10 µM | 1.98 µM | 8.74 µM | 3.39 µM | > 10 µM | 0.267 µM | 2.3 µM | 8.07 | > 10 µM | 0.93 µM | > 10 µM
O=C1c2cccnc2-c2nc(-c3ccccn3)cc3c2c1nc1ccccc13 | 0.481 µM | 1.5 µM | 0.0616 µM | 0.268 µM | 0.211 | 4.09 µM | 0.423 µM | 1.7 µM | 0.208 µM | 0.658 µM | 0.149 µM | 0.306 µM | 0.119 µM | 0.781 µM | 0.136 µM | 0.632 µM | 0.62 | 2.1 µM | 0.374 µM | 1.78 µM
c1ccc(Oc2c3ccccc3nc3ccccc23)cc1 | 4.49 µM | 25.8 µM | 3.29 µM | 10.3 µM | 0.82 | 48 µM | 5.03 µM | > 100 µM | 7.32 µM | 27 µM | 3.26 µM | 11 µM | 6.07 µM | 19.5 µM | 0.454 µM | 24.7 µM | 4.43 | 20.9 µM | 3.71 µM | 14.3 µM
Cc1c2ncccc2c(C)c2c1[nH]c1ccc(O)cc12 | – | 26.1 µM | 2.78 µM and 1.6 µM | 12.8 µM and 7.17 µM | – | 3.56 µM and 2.13 µM | 4.53 µM | 10.3 µM | 4.08 µM | 21 µM | 9.94 µM and 4.34 µM | 13.9 µM and 21.6 µM | – | 15.8 µM | 5.04 µM | 20.9 µM and 50.4 µM | 1.01 | 17.3 µM and 63 µM | 11.9 µM and 19 µM | –
Cc1ccc2c(/C=C/C(=O)c3cc(CN4CCOCC4)c(O)c4nc(C)ccc34)cc(CN3CCOCC3)c(O)c2n1 | 1.8 µM | 3.37 µM | 0.385 µM | 9.37 µM | 0.386 | 2.66 µM | 0.765 µM | 10.3 µM | 0.162 µM | > 100 µM | 0.412 µM | 2.58 µM | 0.297 µM | 1.53 µM | 0.355 µM | 17.1 µM | 2.1 | 13.6 µM | 1.13 µM | 4.5 µM
CC(C)(C)[Si](C)(C)OC1[C@@H](O[Si](C)(C)C(C)(C)C)[C@@H](CNC(=O)NC(=O)NC(=O)CI)O[C@H]1n1cnc2c(NC(=O)Nc3ccccc3)ncnc21 (some centres undefined) | 3.61 µM | 11.4 µM | 4.79 µM | 21.7 µM | 0.718 | 3.12 µM | 0.849 µM | 2.36 µM | 0.909 µM | 3.41 µM | 0.443 µM | 1.88 µM | 0.0966 µM | 0.406 µM | 3.55 µM | 8.5 µM | 0.236 | 1.14 µM | 0.187 µM | 1.09 µM
CC1/C=C/C=C/CC/C=C/C=C/C=C/C=C/C(OC2OC(C)C(O)C(N)C2O)CC2OC(CC(O)C(O)CCC(O)CC(O)CC(O)CC(=O)OC(C)C(C)C1O)CC(O)C2C(=O)O (centres undefined) | 25.8 µg/mL | 33.2 µM and 46.5 µg/mL | 30.4 µg/mL | 39.7 µM and 87.7 µg/mL | – | 38.2 µM | 46.2 µg/mL | 45.7 µM and 108 µg/mL | 41 µg/mL | 45.2 µM and 93.8 µg/mL | 69.1 µg/mL | 32.4 µM and 150 µg/mL | 23.5 µg/mL | 31.8 µM and 44.5 µg/mL | 74.9 µg/mL | > 100 µM and 150 µg/mL | – | 30.9 µM | 25.7 µg/mL | 35.6 µM and 50.3 µg/mL
COc1ccc(C(=O)c2cc(OC)c(OC)c(OC)c2)cc1/C=C/C(=O)c1ccc(O)cc1 | 3.14 µM | 15.1 µM | 2.56 µM | 7.23 µM | 0.841 | > 100 µM | 6.5 µM | 20.1 µM | 2.68 µM | 8.09 µM | 4.58 µM | 18.3 µM | 3.07 µM | 17.3 µM | 0.357 µM | > 100 µM | 4.55 | 19.4 µM | 2.93 µM | 10.2 µM
CCOC(=O)c1sc2ncn(Cc3cccc(Cl)c3)c(=O)c2c1C | 15.9 µM | 30.7 µM | 18.7 µM | 39.7 µM | 13.2 | 25.9 µM | 12 µM | 24.4 µM | 7.78 µM | 20.7 µM | 12.9 µM | 25.6 µM | 6.19 µM | 19.2 µM | 12.3 µM | 24.8 µM | 17.3 | 31 µM | 14.7 µM | 27.9 µM
COc1ccc2c(CN3CCC(CO)CC3)cc3cc4c(cc3c2c1)OCO4 | 0.211 µM | 0.554 µM | 0.143 µM | 3.21 µM | 0.175 | 1.44 µM | 0.241 µM | 3.29 µM | 0.255 µM | 10.4 µM | 0.265 µM | 8.82 µM | 0.289 µM | 3.42 µM | 0.15 µM | 3.07 µM | 0.415 | 6.29 µM | 0.298 µM | 1.5 µM
O=C(Nc1ncc([N+](=O)[O-])s1)c1cccc([N+](=O)[O-])c1 | 2.1 µM | 24.5 µM | 2.8 µM | > 100 µM | 3.04 | > 34.1 µM | 2.71 µM | 35.1 µM | 3.32 µM | > 100 µM | 3.54 µM | > 100 µM | 3.7 µM | 22.7 µM | 2.49 µM | > 40 µM | 2.8 | > 100 µM | 2.87 µM | > 78.2 µM
O=C1NC(=O)C2=C1CCC2O (centres undefined) | – | > 100 µM | – | > 100 µM | – | > 100 µM | – | > 100 µM | – | > 100 µM | – | > 100 µM | – | > 100 µM | – | > 100 µM | – | > 100 µM | – | > 100 µM
